Experimental data as given in patent publication US20100048731A1, “Hydroxylated Long-Chain Resveratrol Derivatives Useful as Neurotrophic Agents” (Centre National de la Recherche Scientifique(CNRS), priority 2006, published 2010).
Read-outs that look alike come from different tables or passages of the source.

Assays:
[1] = test system: microglial cell cultures treated with LPS; experiment: Nitrite release (Griess method) in LPS-activated microglial cell cultures; assay type: cell-based; details: LPS 0.01 μg/ml; for decrease in nitrite production compared to the control values: three independent experiments, concentration not stated (5×10^-6, 10^-6 and 10^-7 M tested)
Source text: (§1) The experiments carried out thus relate to the capacity of RFA molecules (MRFA and DMRFA) to inhibit, in activated microglia, the release of nitrites and TNF-α.
The activity of NO-synthase type II (NOS II) represents a microglial activity parameter often analyzed in the literature. This enzyme is responsible for the synthesis of nitric oxide radicals under conditions of inflammatory activation. Microglia at rest only express levels at the immunoblotting detection limit. Activation of 24 to 48 hours leads to a strong increase in this expression. The product of this enzyme, NO, quickly breaks down in culture to form nitrites.
(§2) In the experiments performed, NO2^− concentrations were measured after 24 hours and 48 hours of activation in microglial cell cultures treated with 0.01 μg/ml of LPS, in the presence of products RFA-12, MRFA-10, MRFA-12, MRFA-14, MRFA-16, MRFA-18, DMRFA-10, DMRFA-12, DMRFA-14, DMRFA-16, DMRFA-18, M-resveratrol, DM-resveratrol and resveratrol at concentrations of 5×10^−6 M, 10^−6 M and 10^−7 M.

[2] = test system: microglial cell cultures treated with LPS; experiment: TNF-α release (ELISA) in LPS-activated microglial cell cultures; assay type: cell-based; details: read-out: decrease in TNF-α production compared to control values
Procedure: as §1
The expression of TNF-α represents a microglial activation parameter often analyzed in the literature. […] A 24-hour activation by LPS leads to a strong increase in expression, detectable by ELISA.
as §2, with “TNF-α” for “NO2^−”, “24” for “24 hours and 48”, “LPS” for “LPS,”, “of” for “of products RFA-12,”

neural stem cells [3] = experiment: Differentiation of neural stem cells (neurospheres) into neurons, by immunocytochemistry; assay type: cell-based, mouse; details: for increase in the neuron population compared to the control fixed at 100%: 3 days of differentiation
Procedure: (§3) Neurospheres are obtained from mouse embryo telencephalon cells cultivated in a defined medium containing 20 ng/ml EGF. After dissociation, the spheres proliferate for 3 days in the presence of EGF (20 ng/ml) during the so-called proliferation phase.
The spheres are then collected and deposited on an poly-ornithine support in a defined medium in the presence of 2 ng/ml EGF. Under these conditions, the spheres adhere to the support and differentiate. The compounds to be tested, RFA-12 and its analogues, dissolved beforehand in ethanol, are added immediately after the deposit of the neurospheres at various concentrations ranging from 10^−5 M to 10^−9 M. The control cultures are treated with a negative control (ethanol) and a positive control (retinoic acid).
To screen our compounds we performed a double labeling, namely for neurons and for astrocytes.
For the detection of astrocytes, a secondary antibody coupled to a fluorochrome derived from rhodamine, Alexa488 (green), was used.
In order to be able to quantify the results, the nuclei are marked by an intercalating agent, TO-PRO (blue). The cultures are then observed under a confocal microscope.

neural stem cells [4] = experiment: Neural stem cell proliferation; assay type: cell-based, mouse; details: 10^-6 M; cultured for 5 days
Procedure: as §3
1. RFA-12 induces the differentiation of neural stem cells into neurons. […] However, if the neurospheres are treated with RFA-12 at a concentration of 10^−6 M to 10^−8 M, an increase in the number of neurons compared to the control (untreated cells) is observed. At concentrations of 10^−6 M, 10^−7 M and 10^−8 M we can observe a 120%, 90% and 80% increase, respectively, in the neuron population compared to the control fixed at 100%. […] In order to see whether RFA and its analogues also act on neural stem cell proliferation, these cells are dissociated and then cultured in the presence of RFA (10^−6 M and 10^−8 M) for 5 days, and then the number of living cells and their size and morphology are recorded.

[5] = DPPH test (antioxidant capacity); assay type: physicochemical; details: after 3 hours of incubation (time stated for the hybrid molecules); read-out: IC50 (concentration at which 50% of the radicals are reduced), DPPH test
Procedure: The DPPH [(2,2′-di(4-tert-octylphenyl)1-picrylhydrazyl] test was used to determine the antioxidant capacity of our compounds [9]. DPPH is a stabilized radical that absorbs at 517 nm (violet color). When it is placed in the presence of an antioxidant molecule, the latter will react with the radical. Thus, a decrease in absorbance can be observed. Antioxidant capacity thus results in a decrease in absorbance at 517 nm.
a) Implementation of the DPPH Test
On a 96-well ELISA plate, add: • 100 μl of the various solutions at the following concentrations: 10 mM, 5 mM, 2.5 mM, 1 mM, 0.5 mM, 0.1 mM, 0.01 mM and 0.001 mM; • 100 μl of a 400 μM solution of DPPH in ethanol.
After incubating for 45 minutes, 2 hours and 3 hours, the result is given by measuring optical density at […] using a spectrophotometer.
The result is expressed as IC50, which is the concentration at which 50% of the radicals are reduced by the antioxidant molecule.
The inventors tested resveratrol, as a positive control, as well as RFA-10, RFA-12 and RFA-16.

[6] = ABTS test (antioxidant capacity, hydroxyl radicals from the Fenton reaction); assay type: physicochemical; details: after 2 hours of incubation
Source text: In light of the results obtained with the DPPH test, the use of the ABTS ([2,2′-azino-bis-(3-ethylbenzthiazoline-6-sulfonic acid)]) test was considered, [11], [12]. The ABTS test is more sensitive insofar as it uses less encumbered hydroxyl radicals.
The ABTS molecule reacts with the hydroxyl (OH) radicals generated in the medium by the Fenton reaction to form a cation radical, ABTS^+ (green color), which is absorbent at 405 nm. Thus, when it is placed in the presence of an antioxidant molecule, one capable of reducing hydroxyl radicals, a reduction in absorbance at 405 nm can be observed.
On a 96-well ELISA plate, add: • 180 μl of a 50/50 water/ethanol mixture; • 30 μl of a 1 mM aqueous ABTS solution; • 30 μl of a 1 mM aqueous FeSO4 solution; • 30 μl of the product to be tested at the following concentrations: 10 mM, 5 mM, 2.5 mM, 1 mM, 0.5 mM, 0.1 mM, 0.01 mM and 0.001 mM; • 30 μl of a 100 mM aqueous H2O2 solution.
After incubating for 45 minutes, 1 hour and 2 hours, the result is given by measuring optical density at 405 nm using a spectrophotometer.
In order to maximally reduce solubility problems, RFA-10 was tested. Resveratrol was again used as a positive control.

[7] = LPS 0.01 μg/ml, 24 hours of activation, compound at 5×10^-6 M

COc1ccc(/C=C/c2cc(OC)c(CCCCCCCCCCO)c(OC)c2)cc1OC [DMRFA-10]
decrease in nitrite production compared to the control values [1]: 20%
inhibition at 5 µM [2, 7]: 40%

COc1ccc(/C=C/c2cc(OC)c(CCCCCCCCCCCCO)c(OC)c2)cc1OC [DMRFA-12]
inhibition at 5 µM [2, 7]: 40%

COc1ccc(/C=C/c2cc(OC)cc(OC)c2)cc1 [M-resveratrol, reference compound]
inhibition at 5 µM ([2]; 24 h): 20%

COc1ccc(/C=C/c2cc(OC)c(CCCCCCCCCCO)c(OC)c2)cc1 [MRFA-10]
decrease in nitrite production compared to the control values [1]: 20%
inhibition at 5 µM [2, 7]: 20 to 40%

COc1ccc(/C=C/c2cc(OC)c(CCCCCCCCCCCCO)c(OC)c2)cc1 [MRFA-12]
inhibition at 5 µM [2, 7]: 20 to 40%

COc1ccc(/C=C/c2cc(OC)c(CCCCCCCCCCCCCCO)c(OC)c2)cc1 [MRFA-14, (E)-14-(4-(4-methoxystyryl)-2,6-dimethoxyphenyl)tetradecan-1-ol]
inhibition at 5 µM [2, 7]: 20 to 40%

OCCCCCCCCCCCCc1c(O)cc(/C=C/c2ccc(O)cc2)cc1O [RFA-12]
decrease in nitrite levels ([1]; compound at 5×10^-6 M): 50%
differentiation of neural stem cells, result in words (neural stem cells [3]; 10^-5 M): does not induce differentiation due to toxicity
increase in the neuron population compared to the control fixed at 100% (neural stem cells [3]; 10^-6 M): 120%
increase in the neuron population compared to the control fixed at 100% (neural stem cells [3]; 10^-7 M): 90%
increase in the neuron population compared to the control fixed at 100% (neural stem cells [3]; 10^-8 M): 80%
differentiation of neural stem cells, result in words (neural stem cells [3]; 10^-9 M): only weak activity
inhibition at 5 µM [2, 7]: 40%
effect on neural stem cell proliferation (neural stem cells [4]): inhibits the proliferation of neural stem cells

Oc1ccc(/C=C/c2cc(O)cc(O)c2)cc1 [resveratrol]
decrease in nitrite production compared to the control values [1]: 20%
IC50 [5]: 10 µM
IC50 [6]: 30 µM
inhibition at 5 µM [2, 7]: 30%
